Results from ChEMBL document CHEMBL3585280, “2-Aminopyridines with a Truncated Side Chain To Improve Human Neuronal Nitric Oxide Synthase Inhibitory Potency and Selectivity” (J Med Chem, 2015).

How the values were obtained:
Assay type in all cases: ADME, organism-based
[1] = system: Brain; assay: AUClast in BALB/c mouse brain at 2 mg/kg, iv; conditions: in vivo
[2] = system: Brain; assay: AUClast in BALB/c mouse brain at 10 mg/kg, po; conditions: in vivo
[3] = Cmax in BALB/c mouse plasma at 2 mg/kg, iv; set-up: dose 2 mg/kg, route intravenous
[4] = Cmax in BALB/c mouse brain at 2 mg/kg, iv; set-up: dose 2 mg/kg, route intravenous

Question: With `CNCCN(C)c1cc(C#N)cc(CCc2cc(C)cc(N)n2)c1` as the molecule, how does the AUClast [1] read?
Answer: 789.07 ng·h/g

Question: And the AUClast [2]?
Answer: 673.67 ng·h/g

Question: What about the Cmax [3] of the same molecule?
Answer: 472 ng/mL

Question: And the Cmax [4]?
Answer: 100 ng/g
